Experimental data from patent US12012403B2, “Aryl sulfonyl compounds as CCR6 inhibitors” (CHEMOCENTRYX, INC., priority 2021, dated 2024).

Target: T1, human CCR6 (Homo sapiens, UniProt P51684)
T1 construct: expressed in transfected cells; host or cells: Ba/F3 cells (murine pro-B line), hCCR6-transfected, CMV promoter, sodium butyrate induction
T1 sequence (P51684 1-374): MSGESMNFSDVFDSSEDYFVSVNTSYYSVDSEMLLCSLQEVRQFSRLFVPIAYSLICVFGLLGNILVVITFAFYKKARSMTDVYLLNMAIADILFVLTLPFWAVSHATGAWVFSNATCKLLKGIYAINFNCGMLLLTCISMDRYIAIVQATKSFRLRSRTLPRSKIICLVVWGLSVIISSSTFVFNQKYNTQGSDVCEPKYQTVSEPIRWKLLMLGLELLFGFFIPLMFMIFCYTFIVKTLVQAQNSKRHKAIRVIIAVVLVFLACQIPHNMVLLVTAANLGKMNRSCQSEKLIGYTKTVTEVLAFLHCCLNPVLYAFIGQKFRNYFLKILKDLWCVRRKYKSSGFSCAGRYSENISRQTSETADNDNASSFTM
Assay: Migration (chemotaxis) assay, hCCR6-transfected Ba/F3 cells toward CCL20
Format: cell-based
Settings: hCCR6-transfected Ba/F3 cells in human serum; recombinant human CCL20 10 nM; 37° C. 45 minutes; read-out: Potency (IC50 value in the migration assay)
Text: A chemotaxis assay can be used to determine the efficacy of potential receptor antagonists at blocking the migration mediated through chemokine receptors, such as CCR6. This assay is routinely performed using the ChemoTX® microchamber system with a 5-μm pore-sized polycarbonate membrane. Chemokine receptor-expressing cells are required for such an assay. In this case, Ba/F3 cells (Palacios et al., Nature, 309:126, 1984) transfected with the gene for human CCR6 under control of the CMV promotor were used. To begin such an assay, hCCR6-transfected Ba/F3 cells are first grown for 24 hr in medium supplemented with sodium butyrate, which increases CCR6 transcription via the CMV promotor. The prepared Ba/F3 cells, are collected by centrifugation at 400×g at room temperature, then suspended at 4 million/ml in human serum. The compound being tested is serially diluted from a maximum final concentration of 10 μM (or an equivalent volume of its solvent (DMSO)) and is then added to the cell/serum mixture. Separately, recombinant human CCL20 (MIP-3α/LARC) at its EC50 concentration (10 nM) is placed in the lower wells of the ChemoTX® plate. The 5-μm (pore size) polycarbonate membrane is placed onto the plate, and 20 μL of the cell/compound mixture is transferred onto each well of the membrane. The plates are incubated at 37° C. for 45 minutes, after which the polycarbonate membranes are removed and 5 μl of the DNA-intercalating dye CyQUANT (Invitrogen, Carlsbad, CA) is added to the lower wells. The amount of fluorescence, corresponding to the number of migrated cells, is measured using a Spectrafluor Plus plate reader (TECAN, San Jose, CA).

Row | Structure (SMILES) | IC50
1 | NC(=O)C(=O)N1CCN(c2ccc(S(=O)(=O)N3CCC(Nc4ccc(C(F)(F)F)cn4)CC3)cc2)CC1 [Example 1.173] | 5 to 100 nM
2 | O=S(=O)(c1ccc(N2CCC(c3ccn[nH]3)CC2)cc1)N1CCC(Nc2ccc(C(F)(F)F)cn2)CC1 [Example 1.222] | 5 to 100 nM
3 | NC(=O)NCC1CCN(c2ccc(S(=O)(=O)N3CCC(Nc4ccc(C(F)(F)F)cn4)CC3)cc2)CC1 [Example 1.146] | < 5 nM
4 | O=S(=O)(c1ccc(N2CCC(O)CC2)nc1)N1CCC(Nc2ccc(C(F)(F)F)cn2)CC1 [Example 1.209] | 100 to 10000 nM
5 | CC1(CC(N)=O)CCN(c2ccc(S(=O)(=O)N3CCC(Nc4ccc(C(F)(F)F)cn4)CC3)cc2)CC1 [Example 1.136] | 5 to 100 nM
6 | NC(=O)N[C@H]1CCN(c2ccc(S(=O)(=O)N3CCC(Nc4ccc(C(F)(F)F)cn4)CC3)cc2)C1 [Example 1.190] | 100 to 10000 nM
7 | CC(C)(C(N)=O)C1CCN(c2ccc(S(=O)(=O)N3CCC(Nc4ccc(C(F)(F)F)cn4)CC3)cc2)CC1 [Example 1.123] | 5 to 100 nM
8 | CN(C)C(=O)CC1CCN(c2ccc(S(=O)(=O)N3CCC(Nc4ccc(C(F)(F)F)cn4)CC3)cc2)CC1 [Example 1.134] | 100 to 10000 nM
9 | CC(=O)NC1CCN(c2ccc(S(=O)(=O)N3CCC(Nc4ccc(C(F)(F)F)cn4)CC3)cc2)CC1 [Example 1.210] | 5 to 100 nM
10 | O=S(=O)(c1ccc(N2CCC(c3cnc[nH]3)CC2)cc1)N1CCC(Nc2ccc(C(F)(F)F)cn2)CC1 [Example 1.130] | 100 to 10000 nM
11 | CC(C)(C)OC(=O)N[C@H]1CCCN(c2ccc(S(=O)(=O)N3CCC(Nc4ccc(C(F)(F)F)cn4)CC3)cc2)C1 [Example 1.219] | 100 to 10000 nM
12 | CC(=O)N[C@H]1CCN(c2ccc(S(=O)(=O)N3CCC(Nc4ccc(C(F)(F)F)cn4)CC3)cc2)C1 [Example 1.192] | 100 to 10000 nM
13 | CC(=O)NCC(=O)N1CCN(c2ccc(S(=O)(=O)N3CCC(Nc4ccc(C(F)(F)F)cn4)CC3)cc2)CC1 [Example 1.164] | 100 to 10000 nM
14 | CC(C)(O)OC(=O)N1CCC2(CC1)C(=O)Nc1ccc(-c3ccc(S(=O)(=O)N4CCC(Nc5ccc(C(F)(F)F)cn5)CC4)cc3)cc12 [Example 1.044] | 5 to 100 nM
15 | CC(C)(C)OC(=O)NC1CCN(c2ccc(S(=O)(=O)N3CCC(Nc4ccc(C(F)(F)F)cn4)CC3)cc2)CC1 [Example 1.217] | 5 to 100 nM
16 | CC(=O)N1CCC(c2ccc(S(=O)(=O)N3CCC(Nc4ccc(C(F)(F)F)cn4)CC3)cc2)CC1 [Example 1.184] | 5 to 100 nM
17 | O=C1CC2(CCN(c3ccc(S(=O)(=O)N4CCC(Nc5ccc(C(F)(F)F)cn5)CC4)cc3)CC2)CC(=O)N1 [Example 1.152] | < 5 nM
18 | O=S(=O)(c1ccc(C2CCCNC2)cc1)N1CCC(Nc2ccc(C(F)(F)F)cn2)CC1 (stereo not drawn) [Example 1.225] | 100 to 10000 nM
19 | O=S(=O)(c1ccc(N2CCC(Cc3ncc[nH]3)CC2)cc1)N1CCC(Nc2ccc(C(F)(F)F)cn2)CC1 [Example 1.131] | 100 to 10000 nM
20 | O=S(=O)(c1ccc(N2CCC3(CC2)CC(O)C3)cc1)N1CCC(Nc2ccc(C(F)(F)F)cn2)CC1 [Example 1.158] | 5 to 100 nM

Next, values leading:

Row | IC50 | Structure (SMILES)
21 | 100 to 10000 nM | O=S(=O)(c1ccc(-c2ccc3c(c2)OCCO3)cc1)N1CCC(Nc2ccc(C(F)(F)F)cn2)CC1 [Example 1.032]
22 | < 5 nM | NC(=O)c1cnc2ccc(-c3ccc(S(=O)(=O)N4CCC(Nc5ccc(C(F)(F)F)cn5)CC4)cc3)cn12 [Example 1.085]
23 | 100 to 10000 nM | N#Cc1n[nH]c2c1CN(c1ccc(S(=O)(=O)N3CCC(Nc4ccc(C(F)(F)F)cn4)CC3)cc1)CC2 [Example 1.207]
24 | 5 to 100 nM | O=C1NCc2ncc(-c3ccc(S(=O)(=O)N4CCC(Nc5ccc(C(F)(F)F)cn5)CC4)cc3)cc21 [Example 1.010]
25 | 5 to 100 nM | O=S(=O)(c1ccc(C2=CCOCC2)cc1)N1CCC(Nc2ccc(C(F)(F)F)cn2)CC1 [Example 1.236]
26 | < 5 nM | Nc1cc2cc(-c3ccc(S(=O)(=O)N4CCC(Nc5ccc(C(F)(F)F)cn5)CC4)cc3)cnc2o1 [Example 1.081]
27 | 5 to 100 nM | O=C1N(CCO)c2ncc(-c3ccc(S(=O)(=O)N4CCC(Nc5ccc(C(F)(F)F)cn5)CC4)cc3)cc2C12CCOCC2 [Example 1.020]
28 | < 5 nM | COC(=O)c1cc(-c2ccc(S(=O)(=O)N3CCC(Nc4ccc(C(F)(F)F)cn4)CC3)cc2)cc2c1NC(=O)C2 [Example 1.027]
29 | < 5 nM | N#Cc1c(N)[nH]c2ccc(-c3ccc(S(=O)(=O)N4CCC(Nc5ccc(C(F)(F)F)cn5)CC4)cc3)cc12 [Example 1.099]
30 | < 5 nM | O=C1NCCc2cc(-c3ccc(S(=O)(=O)N4CCC(Nc5ccc(C(F)(F)F)cn5)CC4)cc3)ccc21 [Example 1.075]
31 | < 5 nM | O=C1Nc2ncc(-c3ccc(S(=O)(=O)N4CCC(Nc5ccc(C(F)(F)F)cn5)CC4)cc3)cc2C12CCOCC2 [Example 1.064]
32 | 5 to 100 nM | CC(C)(C)[Si](C)(C)OCCN1Cc2ccc(-c3ccc(S(=O)(=O)N4CCC(Nc5ccc(C(F)(F)F)cn5)CC4)cc3)cc2C1=O [Example 1.038]
33 | < 5 nM | N#Cc1cn(CCO)c2ncc(-c3ccc(S(=O)(=O)N4CCC(Nc5ccc(C(F)(F)F)cn5)CC4)cc3)cc12 [Example 1.029]
34 | 5 to 100 nM | O=c1[nH]c2ccc(-c3ccc(S(=O)(=O)N4CCC(Nc5ccc(C(F)(F)F)cn5)CC4)cc3)cc2n1C1COC1 [Example 1.041]
35 | < 5 nM | O=C1NCc2ccc(-c3ccc(S(=O)(=O)N4CCC(Nc5ccc(C(F)(F)F)cn5)CC4)cc3)cc21 [Example 1.093]
36 | < 5 nM | N#Cc1c[nH]c2ncc(-c3ccc(S(=O)(=O)N4CCC(Nc5ccc(C(F)(F)F)cc5)CC4)cc3)cc12 [Example 1.056]
37 | 100 to 10000 nM | O=C1Cc2cc(-c3ccc(S(=O)(=O)N4CCC(Nc5ccc(C(F)(F)F)cn5)CC4)cc3)cc(C(=O)O)c2N1 [Example 1.008]
38 | < 5 nM | O=C1Cc2cc(-c3ccc(S(=O)(=O)N4CCC(Nc5ccc(C(F)(F)F)cn5)CC4)cc3)ccc2N1 [Example 1.076]
39 | 5 to 100 nM | O=C1Cc2ccc(-c3ccc(S(=O)(=O)N4CCC(Nc5ccc(C(F)(F)F)cn5)CC4)cc3)cc2CN1 [Example 1.007]
40 | 5 to 100 nM | O=C1CCc2ccc(-c3ccc(S(=O)(=O)N4CCC(Nc5ccc(C(F)(F)F)cn5)CC4)cc3)cc2N1 [Example 1.047]
41 | < 5 nM | N#Cc1c[nH]c2ncc(-c3ccc(S(=O)(=O)[C@H]4CC[C@H](Nc5ccc(C(F)(F)F)cn5)CC4)cc3)cc12 [Example 1.071]
42 | 5 to 100 nM | O=c1[nH]c(=O)c2ccc(-c3ccc(S(=O)(=O)N4CCC(Nc5ccc(C(F)(F)F)cn5)CC4)cc3)cc2[nH]1 [Example 1.057]
43 | 5 to 100 nM | CC(=O)N1CCC2(CC1)C(=O)Nc1ccc(-c3ccc(S(=O)(=O)N4CCC(Nc5ccc(C(F)(F)F)cn5)CC4)cc3)cc12 [Example 1.026]
44 | 5 to 100 nM | Nc1nc2cc(-c3ccc(S(=O)(=O)N4CCC(Nc5ccc(C(F)(F)F)cn5)CC4)cc3)ccc2[nH]1 [Example 1.107]
45 | 5 to 100 nM | CC(C)(C)OC(=O)N1CC=C(c2ccc(S(=O)(=O)N3CCC(Nc4ccc(C(F)(F)F)cn4)CC3)cc2)CC1 [Example 1.234]
46 | 100 to 10000 nM | Cc1cc(S(=O)(=O)N2CCC(Nc3ccc(C(F)(F)F)cn3)CC2)ccc1-c1ccc2c(c1)CC(=O)N2 [Example 1.018]
47 | 5 to 100 nM | N#Cc1cc2cc(-c3ccc(S(=O)(=O)N4CCC(Nc5ccc(C(F)(F)F)cn5)CC4)cc3)ccc2[nH]1 [Example 1.113]
48 | 100 to 10000 nM | NC(=O)C1CN(c2ccc(S(=O)(=O)N3CCC(Nc4ccc(C(F)(F)F)cn4)CC3)cc2)C1 [Example 1.196]
